In general, EC50 refers to the concentration at which the effect is half-maximal.

SMILES strings stand for the structures.

The source of these data is patent US9018200B2, “Substituted piperidinyl compounds useful as GPR119 agonists” (Merck Sharp & Dohme Corp., priority 2011, dated 2015).

One test concerns the target T1, human GPR119 (Homo sapiens, UniProt Q8TDV5).
T1 sequence (Q8TDV5 1-308 limits assumed): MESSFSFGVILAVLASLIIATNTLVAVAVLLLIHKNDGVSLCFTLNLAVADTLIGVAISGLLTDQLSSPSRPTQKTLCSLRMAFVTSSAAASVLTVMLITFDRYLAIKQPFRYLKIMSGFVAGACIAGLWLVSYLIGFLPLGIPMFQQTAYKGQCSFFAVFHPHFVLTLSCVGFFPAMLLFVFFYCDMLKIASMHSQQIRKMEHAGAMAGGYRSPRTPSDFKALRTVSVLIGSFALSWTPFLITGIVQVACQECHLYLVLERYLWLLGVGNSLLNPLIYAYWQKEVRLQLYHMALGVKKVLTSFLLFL
Kind of test: Measurement of GPR119 signaling (cAMP assay) in HEK 293 cells stably transfected with human GPR119. Type of test: cell-based.
Details: not given
The source says: Measurement of GPR119 Signaling (Cyclic AMP (cAMP) Assay)
Human embryonic kidney (HEK) 293 cell lines stably transfected with human GPR119 were maintained in Dulbecco's Modified Eagle Medium (DMEM) containing fetal bovine serum (FBS), penicillin-streptomycin, HEPES buffer (4-(2-hydroxyethyl)-1-piperazineethane sulfonic acid), and hygromycin. For the cAMP assay, the transfected cells were harvested using a non-enzymatic cell dissociation solution (GIBCO 2672), pelleted and resuspended in stimulation buffer (DMEM, 25 mM HEPES, 0.1% bovine serum albumin (BSA), pH 7.4 in the presence of 100 μM phosphodiesterase inhibitors). The adenylate cyclase assay was constructed following the LANCE™ cAMP Kit (Perkin Elmer, AD0264) instructions.
Briefly, cells with Alexa Fluor® 647-anti cAMP antibody were incubated with 10 point series diluted test article in stimulation buffer with a final concentration of 2.5% DMSO for 45 minutes. The reaction was stopped by incubating with the supplied detection buffer containing the europium chelate of the Eu-SA/Biotin-cAMP tracer for 3 hours. The assay was performed in duplicate in a 384 well plate for duplicate plates and fluorescence was measured at 665 nm. Basal activity was determined using a DMSO control and maximum response was defined as cAMP stimulation produced by an internal agonist control. Standard cAMP concentrations were assayed concurrently for conversion of fluorescence signal to cAMP level. The data was analyzed using 4-parameter curve fit in Microsoft Excel. […]
`COC(=O)c1c(F)cc(OCC[C@@H]2C[C@@H]2C2CCN(CC(F)(F)F)CC2)cc1F` [Example 1, Methyl 2,6-difluoro-4-(2-{(1S,2R)-2-[1-(2,2,2-trifluoroethyl)piperidin-4-yl]cyclopropyl}ethoxy)benzoate] gave an EC50 of 28.7 nM.
As for `O=C(NC1CC1)c1c(F)cc(OCC[C@@H]2C[C@@H]2C2CCN(CC(F)(F)F)CC2)cc1F` [Example 3, N-Cyclopropyl-2,6-difluoro-4-(2-{(1S,2R)-2-[1-(2,2,2-trifluoroethyl)piperidin-4-yl]cyclopropyl}ethoxy)benzamide], the EC50 stood at 5.28 nM.
The same measure, in the same setting: then `CS(=O)(=O)c1ccc(OCC[C@@H]2C[C@@H]2C2CCN(CC(F)(F)F)CC2)cc1` [Example 4, 4-[(1R,2S)-2-{2-[4-(Methylsulfonyl)phenoxy]ethyl}cyclopropyl]-1-(2,2,2-trifluoroethyl)piperidine], with 176 nM.

The same test, now with this note: table of Examples 5-56.
`CCC(F)(F)CN1CCC([C@H]2C[C@H]2CCOc2cc(F)c(C(=O)NC3CC3)c(F)c2)CC1` [Example 5] yielded an EC50 of 0.43 nM.
Turning to `O=C(NC1CC1)c1ccc(OCC[C@@H]2C[C@@H]2C2CCN(CC(F)(F)C(F)(F)F)CC2)cc1F` [Example 6], the EC50 was 0.52 nM.
As to `CCC(F)(F)CN1CCC([C@H]2C[C@H]2CCOc2cc(F)c(C(=O)NC3(C)CC3)c(F)c2)CC1` [Example 7], the EC50 came out at 1.2 nM.
In turn, `O=C(NCC1CCCO1)c1ccc(OCC[C@@H]2C[C@@H]2C2CCN(CC(F)(F)C(F)(F)F)CC2)cc1F` (some centres unmarked) [Example 8] showed an EC50 of 1.6 nM.
`CC(C)(CO)NC(=O)c1ccc(OCC[C@@H]2C[C@@H]2C2CCN(CC(F)(F)C(F)(F)F)CC2)cc1F` [Example 9] returned an EC50 of 2.34 nM.
As for `O=C(NCC1(O)CC1)c1ccc(OCC[C@@H]2C[C@@H]2C2CCN(CC(F)(F)C(F)(F)F)CC2)cc1F` [Example 10], the EC50 was found to be 3.02 nM.
For the molecule `O=C(NC1CC1)c1ccc(OCC[C@@H]2C[C@@H]2C2CCN(CC(F)(F)C(F)F)CC2)cc1F` [Example 11], the response was half-maximal at 3.16 nM (EC50).
Molecule `O=C(NCc1cnoc1)c1ccc(OCC[C@@H]2C[C@@H]2C2CCN(CC(F)(F)C(F)(F)F)CC2)cc1F` [Example 12] gave an EC50 of 3.69 nM.
`CC(C)(C)NC(=O)c1ccc(OCC[C@@H]2C[C@@H]2C2CCN(CC(F)(F)C(F)(F)F)CC2)cc1F` [Example 13] displayed an EC50 of 3.83 nM.
In turn, `CS(=O)(=O)c1ccc(OCC[C@@H]2C[C@@H]2C2CCN(CC(F)(F)C(F)(F)F)CC2)cc1F` [Example 14] gave an EC50 of 4.35 nM.
Regarding `O=C(NC1CC1)c1c(F)cc(OCC[C@@H]2C[C@@H]2C2CCN(CC(F)(F)F)CC2)cc1F` [Example 15], the EC50 worked out at 5.28 nM.
As for `CCC(F)(F)CN1CCC([C@H]2C[C@H]2CCOc2ccc(C(=O)NC3CC3)c(F)c2)CC1` [Example 16], the EC50 is 5.34 nM.
In turn, `O=C(NCCO)c1ccc(OCC[C@@H]2C[C@@H]2C2CCN(CC(F)(F)C(F)(F)F)CC2)cc1F` [Example 17] showed an EC50 of 5.38 nM.
`O=C(NC1CC1(F)F)c1c(F)cc(OCC[C@@H]2C[C@@H]2C2CCN(CC(F)(F)F)CC2)cc1F` (some centres unmarked) [Example 18] gave an EC50 of 5.87 nM.
Regarding `CC(C)(C)NC(=O)c1c(F)cc(OCC[C@@H]2C[C@@H]2C2CCN(CC(F)(F)F)CC2)cc1F` [Example 19], it took 12.2 nM to reach a half-maximal effect (EC50).
`O=C(c1ccc(OCC[C@@H]2C[C@@H]2C2CCN(CC(F)(F)C(F)(F)F)CC2)cc1F)N1CCC(O)C1` (some centres unmarked) [Example 20]: the EC50 turned out to be 13.4 nM.
`CS(=O)(=O)c1ccc(OCC[C@@H]2C[C@@H]2C2CCN(CC(F)(F)C(F)(F)F)CC2)nc1` [Example 21] returned an EC50 of 14 nM.
The molecule `O=C(NC1CC1)c1ccc(OCC[C@@H]2C[C@@H]2C2CCN(CC(F)(F)F)CC2)cc1F` [Example 22] yielded an EC50 of 16.7 nM.
`CC(C)(O)C1CCCN(C(=O)c2ccc(OCC[C@@H]3C[C@@H]3C3CCN(CC(F)(F)C(F)(F)F)CC3)cc2F)C1` (some centres unmarked) [Example 23] returned an EC50 of 18.4 nM.
On the same count and under the same terms, then `O=C(NC1CC(F)(F)C1)c1c(F)cc(OCC[C@@H]2C[C@@H]2C2CCN(CC(F)(F)F)CC2)cc1F` [Example 24], with 20.3 nM; and `CCC(F)(F)CN1CCC([C@H]2C[C@H]2CCOc2ccc(S(C)(=O)=O)c(F)c2)CC1` [Example 25], with 22.5 nM; and `CS(=O)(=O)c1ccc(OCC[C@@H]2C[C@@H]2C2CCN(CC(F)(F)C(F)(F)F)CC2)cc1` [Example 26], with 23.6 nM.
`CS(=O)(=O)c1ccc(OCC[C@@H]2C[C@@H]2C2CCN(CC(F)(F)F)CC2)nc1` [Example 27] showed an EC50 of 27.8 nM.
For `CCC(F)(F)CN1CCC([C@H]2C[C@H]2CCOc2cc(F)c(S(C)(=O)=O)c(F)c2)CC1` [Example 28], the EC50 amounted to 35.3 nM.
Molecule `O=C(c1c(F)cc(OCC[C@@H]2C[C@@H]2C2CCN(CC(F)(F)F)CC2)cc1F)N1CC(F)(F)C1` [Example 31] showed an EC50 of 45.8 nM.
Same read-out and setting: then `COCCNC(=O)c1c(F)cc(OCC[C@@H]2C[C@@H]2C2CCN(CC(F)(F)F)CC2)cc1F` [Example 33], with 68 nM; and `O=C(NC1CCOCC1)c1c(F)cc(OCC[C@@H]2C[C@@H]2C2CCN(CC(F)(F)F)CC2)cc1F` [Example 34], with 77.3 nM.
`Cc1nc(C#N)cc(OCC[C@@H]2C[C@@H]2C2CCN(CC(F)(F)F)CC2)n1` [Example 35] returned an EC50 of 126 nM.
Same read-out and setting: for `CS(=O)(=O)c1ccc(OCC[C@@H]2C[C@@H]2C2CCN(CC(F)(F)F)CC2)cc1` [Example 36] the value was 176 nM.
As to `Cc1cc(OCC[C@@H]2C[C@@H]2C2CCN(CC(F)(F)F)CC2)cc(C#N)n1` [Example 37], the EC50 worked out at 199 nM.
`O=C(c1ccc(OCC[C@@H]2C[C@@H]2C2CCN(CC(F)(F)F)CC2)cc1F)N1CCC(O)C1` (some centres unmarked) [Example 38] returned an EC50 of 257 nM.
Turning to `O=C1Cc2cc(OCC[C@@H]3C[C@@H]3C3CCN(CC(F)(F)F)CC3)ccc2N1` [Example 39], a half-maximal response (EC50) required 270 nM.
`CC(F)(F)CN1CCC([C@H]2C[C@H]2CCOc2ccc(S(C)(=O)=O)cn2)CC1` [Example 40] gave an EC50 of 776 nM.
The molecule `O=C(NC1CC1)c1ccc(OCC[C@@H]2C[C@@H]2C2CCN(CCC(F)(F)F)CC2)cc1F` [Example 41] displayed an EC50 of 59.3 nM.
Same read-out and setting: for `CC(C)(CN1CCC([C@H]2C[C@H]2CCOc2ccc(C(=O)NC3CC3)c(F)c2)CC1)C(F)(F)F` [Example 42] the value was 2.34 nM; for `O=C1Cc2cc(OCC[C@@H]3C[C@@H]3C3CCN(CC(F)(F)C(F)(F)F)CC3)cc(F)c2N1` [Example 43], 7.13 nM.
Regarding `CC(=O)c1ccc(OCC[C@@H]2C[C@@H]2C2CCN(CC(F)(F)C(F)(F)F)CC2)cc1F` [Example 44], the response was half-maximal at 51.6 nM (EC50).
As for `CCC(F)(F)CN1CCC([C@H]2C[C@H]2CCOc2cc(F)c(C(=O)C3CC3)c(F)c2)CC1` [Example 45], the EC50 was determined as 1.65 nM.
Turning to `Cc1nnc(-c2ccc(OCC[C@@H]3C[C@@H]3C3CCN(CC(F)(F)C(F)(F)F)CC3)cc2F)o1` [Example 46], a half-maximal effect (EC50) was put at 7.31 nM.
Still for that read-out and setting: for `FC(F)(F)C(F)(F)CN1CCC([C@H]2C[C@H]2CCOc2ccc(-n3cnnn3)cc2)CC1` [Example 49] the value was 24.2 nM; for `FC(F)(F)C(F)(F)CN1CCC([C@H]2C[C@H]2CCOc2ccc(-n3cncn3)cc2)CC1` [Example 50], 26.9 nM.
In turn, `COC(=O)c1c(F)cc(OCC[C@@H]2C[C@@H]2C2CCN(CC(F)(F)F)CC2)cc1F` [Example 51] displayed an EC50 of 28.7 nM.
The molecule `Cc1nc(-c2ccc(OCC[C@@H]3C[C@@H]3C3CCN(CC(F)(F)C(F)(F)F)CC3)cc2)no1` [Example 52] returned an EC50 of 40.8 nM.
`CC(C)(C)NC(=O)c1ccc(OCC[C@@H]2C[C@@H]2C2CCN(CC(F)(F)F)CC2)cc1F` [Example 53] had an EC50 of 57.9 nM.
Regarding `Cc1nnc(-c2ccc(OCC[C@@H]3C[C@@H]3C3CCN(CC(F)(F)F)CC3)cc2F)o1` [Example 54], the EC50 was determined as 59.5 nM.
With `CS(=O)(=O)c1c(F)cc(COC[C@@H]2C[C@@H]2C2CCN(CC(F)(F)F)CC2)cc1F` [Example 55], the EC50 was determined as 568 nM.
Take `C=CCCC(=O)c1ccc(OCC[C@@H]2C[C@@H]2C2CCN(CC(F)(F)C(F)(F)F)CC2)cc1F` [Example 56]: the EC50 was 13.4 nM.
